Assay results published in patent publication US20040235798A1, “Compositions and methods for inhibiting prenyltransferases” (priority 2001, published 2004).
pIC50: −log10 of the molar value.

Assays:
[1] = target: T1, fungal N-myristoyltransferase (Candida albicans, UniProt P30418); settings: cited from earlier work
T1 sequence (P30418 1-451): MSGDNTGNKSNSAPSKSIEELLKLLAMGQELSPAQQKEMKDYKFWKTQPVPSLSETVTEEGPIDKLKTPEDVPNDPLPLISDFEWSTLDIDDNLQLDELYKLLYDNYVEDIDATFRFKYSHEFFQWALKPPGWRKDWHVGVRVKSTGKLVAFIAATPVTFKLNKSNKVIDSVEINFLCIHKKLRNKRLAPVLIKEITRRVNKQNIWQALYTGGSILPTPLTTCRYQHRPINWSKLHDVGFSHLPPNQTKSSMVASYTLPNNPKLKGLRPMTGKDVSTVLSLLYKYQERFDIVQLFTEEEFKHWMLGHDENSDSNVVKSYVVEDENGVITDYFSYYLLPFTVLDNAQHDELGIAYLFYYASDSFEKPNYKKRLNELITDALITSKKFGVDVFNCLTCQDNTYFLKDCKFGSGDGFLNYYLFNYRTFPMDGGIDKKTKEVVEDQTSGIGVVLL

C. albicans GGPTase = C. albicans GGPTase (Candida albicans, UniProt Q8J224+Q9Y764); experiment: Assay protocol for determining IC50 of fungal GGPTase inhibitors (3H-GGPP, FlashPlate); assay type: biochemical; settings: 2 nM C. albicans GGPTase, 250 nM 3H-GGPP, 250 nM C. albicans Rho; read-out: CaGGTase
Experimental: (i) Assay Protocol for Determining IC50
Plate test compounds (10 μL per well) at predetermined concentration in 50% DMSO. For background control (blank) and reaction control (negative), add 10 μL of 200 μM GGPP and 10 μL 50% DMSO, respectively. Prepare assay buffer: 50 mM Tris, pH7.5, 20 mM KCL, 5 mM MgCl2, 5 μM ZnCl2, 0.5 mM Zw(3-14), 2 mM DTT and 0.1 mg/mL BSA.
Add 20 μL of C. albicans GGPTase and ^3H-GGPP in assay buffer to test compound. Preincubate enzyme and ^3H-GGPP with test compound for 15 minutes at room temperature. Add 20 μL C. albicans Rho in assay buffer. Incubate for 30 minutes at room temperature. Final assay conditions are 2 nM C. albicans GGPTase, 250 nM ^3H-GGPP and 250 nM C. albicans Rho.
Add 100 μL 15 mM GGPP, 50 mM Tris, pH 7.0 and 2% BSA to quench reaction. Transfer reaction to Nickel chelate FlashPlate. Allow his-tagged C. albcians Rho to capture onto plate. Rinse plate 1× with 200 μL 20 mM Tris, pH 7.0. Read in TOPCOUNT.

C. albicans [2] = experiment: In vitro susceptibility testing of compounds in C. albicans (MIC); assay type: cell-based; settings: concentration where no visible growth is observed, 35° C., read at 24 hr and 48 hr; for MIC: Candida albicans, read-out: C. alb MIC
Experimental: (ii) In vitro Susceptibility Testing of Compounds in C. albicans […] Innoculate strain C. albicans strain such as SC5314 into 20 mL of the appropriate medium and incubate at 35° C. with shaking (220 rpm) overnight 2: Count the C. albicans cells in a 1:10 dilution of the overnight culture using a haemocytometer. 3: Work out the dilution factor required to bring the cell number to 1×10^3 cells/100 μL (equivalent to 1×10^4 cells/mL) then add the required volume of the overnight culture to 25 mL media in a falcon tube. 4: Vortex the diluted cells and immediately pipette 100 μL of the cell suspension to each of the required rows of a 96 well plate using the multipipettor 5: Prepare each of the 100× stock solutions for the compounds to be tested in DMSO in the required concentration range in Eppendorf tubes. 6: The dilution series for each of the compounds may now be prepared in sequence: For each compound—start with highest dilution. Add 10 μL compound in DMSO to the 490 μL of appropriate media. Immediately vortex and add 100 μL to the appropriate row of cells on the 96-well plate. Repeat this process for the next and subsequent concentrations of this compound before starting on the dilution series for additional compounds. 7: When complete cover the 96-well plate with an acetate sheet and incubate at 35° C. Inspect visually and record results for both plates at 24 hr and 48 hr. The MIC corresponds to the concentration of compound where no visible growth is observed.

C. albicans [3] = experiment: Determination of minimum fungicidal concentrations (MFC); assay type: cell-based; settings: concentration where no cellular growth is observed on the plate after plating out MIC wells; for MFC: Candida albicans, read-out: C. alb MFC
Experimental: (iii) Determination of Minimum Fungicidal Concentrations (MFC) After the required time course for the MIC determination, the minimum fungicidal concentration can then be determined by plating out the entire contents of the well of the microtitre plates onto YPD or Sabourand plates. These plates are then incubated at 35° C. for 24-48 hrs. The MFC corresponds to the concentration of compound where no cellular growth is observed on the plate.

CAK1 = CAK1 (Candida albicans, UniProt A0A1D8PH53); experiment: CAK1 inhibition, time-resolved fluorescence (FRET) kinase assay with biotin-his-cdk2 substrate; assay type: biochemical; settings: 10 nM his-CAK1, 20 μM ATP, 30 min room temperature
Experimental: The following protocol was used for measuring CAK1 inhibition by test compounds:
A compound plate was pre-made with 20 μg/ml compound dissolved in 100% DMSO in each well of a 384-well plate (polypropylene, Coming cat # 29445-136), except for two control columns, wherein each well contained 100% DMSO.
A substrate plate was prepared by adding a pre-determined volume of substrate solution (925 nM biotin-his-cdk2 in reaction buffer) into each well of a 96-well deep-well plate (Beckman cat. 267006). To the control wells of the plate, 1/20 vol. of positive control and blank solutions were added according to the plate map. Positive control solutions are Olomoucine (MTX-277859) at 0.25, 0.75, 2.25, 6.75 mM, respectively, in DMSO, and blank solution is 50 mM EDTA in reaction buffer (50 mM Tris-HCl (pH 7.5), 50 mM NaCl, 0.1 mg/mL BSA, 100 μM MgCl2).
The reaction plate (384-well polystyrene black, Packard Opti plate, Cat.# 6005256) was loaded with a volume of 2.0 μL of samples from the compound plate and 8.0 μL of substrate solution from the substrate plate. 10 μl of enzyme solution (10 nM his-CAK1, 20 μM ATP in reaction buffer) was added to start the reaction. The plate was covered with a lid and incubated at room temperature for 30 min.
10 μl of FRET solution (45 nM streptavidin-APC*, 30 nM Europium-Ab, 3 mM EDTA in reaction buffer) was added to each of the wells of the reaction plate to stop the reaction. The time-resolved fluorescence was measured on a Wallac Victor fluorometer (excitation 340 nm, emission 665 nm, delay time 100 μs, window time 100 μs).

Sequence of CAK1 (A0A1D8PH53 entry or part of it): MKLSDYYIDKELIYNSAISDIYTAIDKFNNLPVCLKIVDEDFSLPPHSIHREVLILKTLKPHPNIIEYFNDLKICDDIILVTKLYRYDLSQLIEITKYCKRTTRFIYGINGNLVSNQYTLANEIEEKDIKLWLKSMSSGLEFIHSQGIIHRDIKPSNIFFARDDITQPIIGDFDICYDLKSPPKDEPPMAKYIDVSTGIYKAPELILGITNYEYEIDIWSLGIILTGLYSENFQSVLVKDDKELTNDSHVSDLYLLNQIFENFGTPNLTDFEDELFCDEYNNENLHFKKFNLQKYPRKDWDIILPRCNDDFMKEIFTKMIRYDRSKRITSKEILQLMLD
Sequence of C. albicans GGPTase (Q9Y764 entry or part of it): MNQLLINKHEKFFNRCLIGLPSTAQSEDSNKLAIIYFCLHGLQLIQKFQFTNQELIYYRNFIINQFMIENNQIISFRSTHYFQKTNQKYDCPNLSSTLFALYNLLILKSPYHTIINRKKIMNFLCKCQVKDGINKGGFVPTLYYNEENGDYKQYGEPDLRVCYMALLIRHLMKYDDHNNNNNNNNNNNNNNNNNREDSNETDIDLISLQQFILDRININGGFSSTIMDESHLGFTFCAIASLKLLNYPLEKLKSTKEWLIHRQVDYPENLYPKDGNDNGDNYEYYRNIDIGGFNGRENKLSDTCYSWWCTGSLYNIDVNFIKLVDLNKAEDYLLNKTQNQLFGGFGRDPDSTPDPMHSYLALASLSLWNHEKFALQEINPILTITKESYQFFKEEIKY
Sequence of C. albicans GGPTase (Q8J224 entry or part of it): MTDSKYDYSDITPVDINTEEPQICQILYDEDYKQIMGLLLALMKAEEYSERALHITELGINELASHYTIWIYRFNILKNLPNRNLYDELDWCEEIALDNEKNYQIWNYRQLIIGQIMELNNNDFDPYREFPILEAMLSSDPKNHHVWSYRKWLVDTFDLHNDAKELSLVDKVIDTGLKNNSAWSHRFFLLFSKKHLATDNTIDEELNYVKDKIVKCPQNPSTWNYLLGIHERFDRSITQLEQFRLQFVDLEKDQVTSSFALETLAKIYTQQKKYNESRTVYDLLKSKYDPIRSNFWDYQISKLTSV

For `CN(C)C(=O)c1ccc2nc(NC(=O)[C@H]3CC[C@@H](CN)CC3)sc2c1`, the “inhibitor of fungal N-myristoyltransferase” value [1] is listed as “potent inhibitor”.
Work on `Cn1cncc1CN1CCN(C(=O)N(Cc2cccc(Cl)c2)Cc2cccc(Cl)c2)CC1C(=O)NC[C@H]1CO[C@](Cn2ccnc2)(c2ccc(Cl)cc2Cl)O1` (stereo partly shown) [Compound 1] yielded a pIC50 (C. albicans GGPTase) greater than 7.00, an MIC (C. albicans [2]) of less than 10 µg/mL and an MFC (C. albicans [3]) of less than 10 µg/mL.
In the case of `C[C@H](NC(=O)C1CN(C(=O)N(Cc2cccc(Cl)c2)Cc2cccc(Cl)c2)CCN1Cc1cncn1C)[C@](O)(Cn1cncn1)c1ccc(F)cc1F` (stereo partly shown) [Compound 2], the pIC50 (C. albicans GGPTase) was greater than 7.00, the MIC (C. albicans [2]) was less than 10 µg/mL and the MFC (C. albicans [3]) was less than 10 µg/mL.
With `Cn1cncc1CN(CC(=O)NC[C@@H]1CO[C@@](Cn2ccnc2)(c2ccc(Cl)cc2Cl)O1)C1CCN(C(=O)N(Cc2cccc(Cl)c2)Cc2cccc(Cl)c2)CC1` [Compound 4] the pIC50 (C. albicans GGPTase) was greater than 7.00, the MIC (C. albicans [2]) was less than 10 µg/mL and the MFC (C. albicans [3]) was less than 10 µg/mL.
For `Cn1cncc1CN(C[C@@H]1CO[C@@](Cn2ccnc2)(c2ccc(Cl)cc2Cl)O1)C1CCN(C(=O)N(Cc2cccc(Cl)c2)Cc2cccc(Cl)c2)CC1` [Compound 5], the pIC50 (C. albicans GGPTase) was greater than 7.00, the MIC (C. albicans [2]) was less than 10 µg/mL and the MFC (C. albicans [3]) was less than 10 µg/mL.
With `Cn1cncc1CN1CCN(C(=O)N(Cc2cccc(Cl)c2)Cc2cccc(Cl)c2)C[C@@H]1CNC1CO[C@@](Cn2cncn2)(c2ccc(Cl)cc2Cl)O1` (stereo partly shown) [Compound 8] the pIC50 (C. albicans GGPTase) was greater than 7.00, the MIC (C. albicans [2]) was less than 10 µg/mL and the MFC (C. albicans [3]) was less than 10 µg/mL.
In the case of `Cn1cncc1CN1CCN(C(=O)N(Cc2cccc(Cl)c2)Cc2cccc(Cl)c2)C[C@@H]1CNC1CO[C@@](Cn2cncn2)(c2ccc(Cl)cc2Cl)O1` (stereo partly shown) [Compound 9], the “C. alb MIC” value (C. albicans [2]) was less than 10 µg/mL and the “C. alb MFC” value (C. albicans [3]) was less than 10 µg/mL.
For `Cn1cncc1CN1CCN(C(=O)N(Cc2cccc(Cl)c2)Cc2cccc(Cl)c2)C[C@@H]1C(=O)NC[C@@H]1CO[C@@](Cn2cncn2)(c2ccc(Cl)cc2Cl)O1` [Compound 10], the pIC50 (C. albicans GGPTase) was greater than 7.00, the MIC (C. albicans [2]) was less than 10 µg/mL and the MFC (C. albicans [3]) was less than 10 µg/mL.
Work on `Cn1cncc1CN1CCN(C(=O)N(Cc2cccc(Cl)c2)Cc2cccc(Cl)c2)C[C@@H]1C(=O)NC[C@H]1CO[C@](Cn2ccnc2)(c2ccc(Cl)cc2Cl)O1` [Compound 11] yielded a pIC50 (C. albicans GGPTase) greater than 7.00, an MIC (C. albicans [2]) of less than 10 µg/mL and an MFC (C. albicans [3]) of less than 10 µg/mL.
With `Cn1cncc1CN1CCN(C(=O)N(Cc2cccc(Cl)c2)Cc2cccc(Cl)c2)C[C@@H]1C(=O)NC[C@H]1CO[C@](Cn2ccnc2)(c2ccc(Cl)cc2Cl)O1` [Compound 12] the “C. alb MIC” value (C. albicans [2]) was less than 10 µg/mL and the “C. alb MFC” value (C. albicans [3]) was less than 10 µg/mL.
Work on `Cn1cncc1CN1CCN(C(=O)N(Cc2cccc(Cl)c2)Cc2cccc(Cl)c2)C[C@@H]1C(=O)NC[C@@H]1CO[C@@](Cn2ccnc2)(c2ccc(Cl)cc2Cl)O1` [Compound 13] yielded a pIC50 (C. albicans GGPTase) greater than 7.00, an MIC (C. albicans [2]) of less than 10 µg/mL and an MFC (C. albicans [3]) of less than 10 µg/mL.
Work on `Cn1cncc1CN1CCN(C(=O)N(Cc2cccc(Cl)c2)Cc2cccc(Cl)c2)C[C@H]1C(=O)NC[C@@H]1CO[C@@](Cn2ccnc2)(c2ccc(Cl)cc2Cl)O1` [Compound 14] yielded a pIC50 (C. albicans GGPTase) greater than 7.00, an MIC (C. albicans [2]) of less than 10 µg/mL and an MFC (C. albicans [3]) of less than 10 µg/mL.
Molecule `C[C@@H](c1nc([C@H]2CN(C(=O)N(Cc3cccc(Cl)c3)Cc3cccc(Cl)c3)CCN2Cc2cncn2C)cs1)[C@@](O)(c1ccc(F)cc1F)n1cncn1` [Compound 15] has a pIC50 (C. albicans GGPTase) greater than 7.00, an MIC (C. albicans [2]) of less than 10 µg/mL and an MFC (C. albicans [3]) of less than 10 µg/mL.
`C[C@@H](c1nc(CN(Cc2cncn2C)[C@H]2CCN(C(=O)N(Cc3cccc(Cl)c3)Cc3cccc(Cl)c3)C2)cs1)[C@@](O)(c1ccc(F)cc1F)n1cncn1` [Compound 16] showed a pIC50 (C. albicans GGPTase) greater than 7.00, an MIC (C. albicans [2]) of less than 10 µg/mL and an MFC (C. albicans [3]) of less than 10 µg/mL.
Molecule `Cc1onc(-c2c(Cl)cccc2Cl)c1C(=O)Nc1cccc(-c2ncon2)c1` [Compound 101] has a pIC50 (CAK1) greater than 4.30.
In the case of `O=C(CSc1ccccn1)c1ccc(OCc2ccc([N+](=O)O)cc2)cc1` [Compound 102], the pIC50 (CAK1) was greater than 5.00.
In the case of `CCOC(=O)c1c(NC(=O)c2c(OC)cccc2OC)sc(C)c1C` [Compound 103], the pIC50 (CAK1) was greater than 4.30.
In the case of `CCOC(=O)c1c(NC(=O)c2c(OC)cccc2OC)sc2c1CCC(C)C2` (stereo not shown) [Compound 104], the pIC50 (CAK1) was less than 4.30.
In the case of `O=C1CCc2cc(C(=O)CSc3ccc(Cl)cc3Cl)ccc2N1` [Compound 105], the pIC50 (CAK1) was greater than 4.30.
For `CCOC(=O)C1=C(C)N(Cc2ccccc2)C(=O)NC1c1ccc(OC(F)(F)F)cc1` (stereo not shown) [Compound 106], the pIC50 (CAK1) was greater than 4.30.
Molecule `O=C(c1ccccc1OCC1COC(Cn2ccnc2)(c2ccc(Cl)cc2Cl)O1)N(Cc1ccccc1)Cc1ccccc1` (stereo not shown) [Compound 107] has a pIC50 (CAK1) greater than 5.00.
For `O=C(c1cc(C(O)(Cn2ccnc2)c2ccccc2)ccc1-c1ccccc1)N(Cc1ccccc1)Cc1ccccc1` (stereo not shown) [Compound 108], the pIC50 (CAK1) was greater than 4.30.
